Laboratory results from patent US20230210755A1, “FUNCTIONAL SKIN COATING POLYMER” (The Johns Hopkins University, priority 2020, published 2023).

Assay: Extractables and leachables from UV absorber containing films in synthetic perspiration, quantitative 1H NMR
Type: physicochemical
Settings: control: UV filter post-added to extract of Comparative 1 film just prior to concentration (recovery)
Protocol: The films described hereinabove, including the comparative example were further characterized for their ability to retain their UV-filtering components under pseudo-physiological conditions with the potential to extract unbound or otherwise mobile UV-filtering compounds. In general, films were immersed in a gently agitated solution of artificial perspiration for 24 hours at room temperature. Following removal of the films, a small amount of dimethylsulfone was added to each extract solution before it was concentrated to dryness under vacuum (65° C./0 torr). The resulting residues were then taken up in DMSO-d6 and analyzed by quantitative ^1H NMR against the added internal standard (dimethylsulfone). The method was validated by control samples, which were prepared by spiking the extracts derived from silicone films made without UV-filtering compounds, with known amounts of UV-filtering compounds immediately prior to concentration under vacuum.
20-mL screw cap borosilicate vials were charged with 10 g of synthetic perspiration (purchased from Reagents). […] Samples were then analyzed using a Bruker 400 MHz NMR spectrometer. Quantitative determination of the extracted UV filter(s) was then made by comparing the relative integration of distinct resonances derived from the UV filtering compound(s) against that of the internal standard (dimethylsulfone).

## CCCCC(CC)COC(=O)C=Cc1ccc(OC)cc1 (stereo not shown) [Octinoxate]
  UV filter found by 1H NMR: 98%
